Measurements reported in BindingDB's records for doi:10.1021/cb700072n (University of New Mexico Health Sciences Center, 2007).

What was measured:
Estrogen receptor = target: T1, Estrogen receptor (Homo sapiens, UniProt P03372); assay: Competitive Binding Assay
T1 sequence (P03372 whole entry): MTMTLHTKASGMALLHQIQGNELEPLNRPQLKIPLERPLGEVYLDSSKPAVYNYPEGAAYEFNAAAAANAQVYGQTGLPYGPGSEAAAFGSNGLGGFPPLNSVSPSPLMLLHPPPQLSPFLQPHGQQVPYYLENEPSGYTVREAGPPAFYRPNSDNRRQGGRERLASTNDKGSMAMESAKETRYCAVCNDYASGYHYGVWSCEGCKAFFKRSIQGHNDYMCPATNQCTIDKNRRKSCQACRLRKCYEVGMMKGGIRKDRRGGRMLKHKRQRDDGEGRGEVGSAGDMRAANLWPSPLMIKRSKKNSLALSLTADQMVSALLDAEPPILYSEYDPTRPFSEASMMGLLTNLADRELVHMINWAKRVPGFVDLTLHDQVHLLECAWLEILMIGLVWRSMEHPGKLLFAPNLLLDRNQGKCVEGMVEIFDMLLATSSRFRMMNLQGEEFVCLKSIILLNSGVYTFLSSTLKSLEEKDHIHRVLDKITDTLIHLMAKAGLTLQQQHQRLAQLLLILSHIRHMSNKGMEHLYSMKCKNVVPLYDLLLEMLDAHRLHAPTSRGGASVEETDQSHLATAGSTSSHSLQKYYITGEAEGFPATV
Description: (§1) Competitive binding of estrogen to GPR30 and ER alpha were conducted using COS-7 cells transfected with GPR30-GFP or ER alpha-GFP and fluorescent estrogen, E2-Alexa633 labeled as a reporter.

[1] = target: G-protein coupled estrogen receptor 1 (Homo sapiens, UniProt Q99527); assay: Competitive Binding Assay
Description: as §1

Chain of G-protein coupled estrogen receptor 1 (Q99527 whole entry): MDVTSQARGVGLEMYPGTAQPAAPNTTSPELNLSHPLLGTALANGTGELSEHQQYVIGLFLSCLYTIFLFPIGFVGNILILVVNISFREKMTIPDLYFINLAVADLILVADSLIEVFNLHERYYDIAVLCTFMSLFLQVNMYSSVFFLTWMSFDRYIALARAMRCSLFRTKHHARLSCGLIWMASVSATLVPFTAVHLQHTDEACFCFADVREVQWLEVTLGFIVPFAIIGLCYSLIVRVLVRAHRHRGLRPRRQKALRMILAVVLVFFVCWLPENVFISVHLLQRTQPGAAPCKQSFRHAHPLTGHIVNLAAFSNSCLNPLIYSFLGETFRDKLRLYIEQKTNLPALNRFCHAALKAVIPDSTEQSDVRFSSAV

Ki (Estrogen receptor) [nM] | Ki [1] [nM] | SMILES
4.1 | 25 | C[C@]12CCC3c4ccc(O)cc4CCC3C1CC[C@@]2(O)C#Cc1ccc(CN)cc1 (stereo partly drawn) [E2-NH3+]
1.4 | 17 | C[C@]12CCC3c4ccc(O)cc4CCC3C1CC[C@@]2(O)C#Cc1ccc([N+](C)(C)C)cc1 (stereo partly drawn) [E2-NMe3+]
2 | 30 | C[C@]12CCC3c4ccc(O)cc4CCC3C1CC[C@@]2(O)C#Cc1cccc(C(=O)O)c1 (stereo partly drawn) [E2-COO-]
2.7 | 16 | CC(C)(C)OC(=O)NCc1ccc(C#C[C@]2(O)CCC3C4CCc5cc(O)ccc5C4CC[C@@]32C)cc1 (stereo partly drawn) [E2-NB]
